Tests used:
[1] = tested on: UACC-257; assay: NCI one-dose SRB assay (Melanoma); type: cell-based, human
Method in brief: (§1)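 One-dose primary screen per NCI Drug Evaluation Branch protocol: 10^−5 M compound, 48 h, SRB viability/growth read-out, GI% reported.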

[2] = tested on: MALME-3M; assay: NCI one-dose SRB assay (Melanoma); type: cell-based, human
Method in brief: as §1

[3] = tested on: SK-MEL-28; assay: NCI one-dose SRB assay (Melanoma); type: cell-based, human
Method in brief: as §1

[4] = tested on: SK-MEL-5; assay: NCI one-dose SRB assay (Melanoma); type: cell-based, human
Method in brief: as §1

[5] = tested on: LOX IMVI; assay: NCI one-dose SRB assay (Melanoma); type: cell-based, human
Method in brief: as §1

[6] = tested on: MDA-MB-435; assay: NCI one-dose SRB assay (Melanoma); type: cell-based, human
Method in brief: as §1

[7] = tested on: M14; assay: NCI one-dose SRB assay (Melanoma); type: cell-based, human
Method in brief: as §1

[8] = tested on: SK-MEL-2; assay: NCI one-dose SRB assay (Melanoma); type: cell-based, human
Method in brief: as §1

[9] = tested on: UACC-62; assay: NCI one-dose SRB assay (Melanoma); type: cell-based, human
Method in brief: as §1

[10] = tested on: NCI-H322M; assay: NCI one-dose SRB assay (Non-Small Cell Lung Cancer); type: cell-based, human
Method in brief: as §1

[11] = tested on: HOP-62; assay: as above; type: cell-based, human
Method in brief: as §1

[12] = tested on: NCI-H460; assay: as above; type: cell-based, human
Method in brief: as §1

[13] = tested on: NCI-H226; assay: as above; type: cell-based, human
Method in brief: as §1

[14] = tested on: NCI-H23; assay: as above; type: cell-based, human
Method in brief: as §1

[15] = tested on: A549/ATCC; assay: as above; type: cell-based, human
Method in brief: as §1

[16] = tested on: HOP-92; assay: as above; type: cell-based, human
Method in brief: as §1

[17] = tested on: EKVX; assay: as above; type: cell-based, human
Method in brief: as §1

[18] = tested on: NCI-H522; assay: as above; type: cell-based, human
Method in brief: as §1

[19] = tested on: HL-60(TB); assay: NCI one-dose SRB assay (Leukemia); type: cell-based, human
Method in brief: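 Cells were treated with compound at 10^−5 M. After 48 h, growth was estimated with sulforhodamine B. Inhibition was given as GI%.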

[20] = tested on: RPMI-8226; assay: NCI one-dose SRB assay (Leukemia); type: cell-based, human
Method in brief: as §1

[21] = tested on: MOLT-4; assay: NCI one-dose SRB assay (Leukemia); type: cell-based, human
Method in brief: as §1

[22] = tested on: CCRF-CEM; assay: NCI one-dose SRB assay (Leukemia); type: cell-based, human
Method in brief: as §1

[23] = tested on: SR; assay: NCI one-dose SRB assay (Leukemia); type: cell-based, human
Method in brief: as §1

[24] = tested on: K-562; assay: NCI one-dose SRB assay (Leukemia); type: cell-based, human
Method in brief: as §1

[25] = Homo sapiens, 10 μM, read-out: Percentage growth inhibition (GI%)

## COc1ccc(NC(=O)Nc2ccc(-c3ccc(OC)c(OC)c3)nc2C)cc1 [Compound 8n, 1-(6-(3,4-Dimethoxyphenyl)-2-methylpyridin-3-yl)-3-(4-methoxyphenyl) Urea]
[1]; Homo sapiens, UACC-257, 10 μM, read-out: Percentage growth inhibition (GI%)
  inhibition at 10 µM: 45%
[1]; UACC-257, 1.00E-5 Molar
  Growth Percent: 55.47%
[2]; 1.00E-5 Molar
  Growth Percent: 44.12%
[2]; [25]
  inhibition at 10 µM: 56%
[3]; Homo sapiens, SK-MEL-28, 10 μM, read-out: Percentage growth inhibition (GI%)
  inhibition at 10 µM: 14%
[3]; SK-MEL-28, 1.00E-5 Molar
  Growth Percent: 86.76%
[4]; Homo sapiens, SK-MEL-5, 10 μM, read-out: Percentage growth inhibition (GI%)
  inhibition at 10 µM: 78%
[4]; SK-MEL-5, 1.00E-5 Molar
  Growth Percent: 22.98%
[5]; 1.00E-5 Molar
  Growth Percent: 88.83%
[5]; [25]
  inhibition at 10 µM: 12%
[6]; Homo sapiens, MDA-MB-435, 10 μM, read-out: Percentage growth inhibition (GI%)
  inhibition at 10 µM: 35%
[6]; MDA-MB-435, 1.00E-5 Molar
  Growth Percent: 65.17%
[7]; Homo sapiens, M14, 10 μM, read-out: Percentage growth inhibition (GI%)
  inhibition at 10 µM: 28%
[7]; M14, 1.00E-5 Molar
  Growth Percent: 72.14%
[8]; Homo sapiens, SK-MEL-2, 10 μM, read-out: Percentage growth inhibition (GI%)
  inhibition at 10 µM: 21%
[8]; SK-MEL-2, 1.00E-5 Molar
  Growth Percent: 79.55%
[9]; Homo sapiens, UACC-62, 10 μM, read-out: Percentage growth inhibition (GI%)
  inhibition at 10 µM: 41%
[9]; UACC-62, 1.00E-5 Molar
  Growth Percent: 59.87%
[10]; 1.00E-5 Molar
  Growth Percent: 86.96%
[10]; [25]
  inhibition at 10 µM: 14%
[11]; HOP-62, 1.00E-5 Molar
  Growth Percent: 56.53%
[11]; Homo sapiens, HOP-62, 10 μM, read-out: Percentage growth inhibition (GI%)
  inhibition at 10 µM: 44%
[12]; Homo sapiens, NCI-H460, 10 μM, read-out: Percentage growth inhibition (GI%)
  inhibition at 10 µM: 83%
[12]; NCI-H460, 1.00E-5 Molar
  Growth Percent: 17.58%
[13]; Homo sapiens, NCI-H226, 10 μM, read-out: Percentage growth inhibition (GI%)
  inhibition at 10 µM: 42%
[13]; NCI-H226, 1.00E-5 Molar
  Growth Percent: 58.04%
[14]; Homo sapiens, NCI-H23, 10 μM, read-out: Percentage growth inhibition (GI%)
  inhibition at 10 µM: 33%
[14]; NCI-H23, 1.00E-5 Molar
  Growth Percent: 67.43%
[15]; 1.00E-5 Molar
  Growth Percent: 57.02%
[15]; [25]
  inhibition at 10 µM: 43%
[16]; HOP-92, 1.00E-5 Molar
  Growth Percent: 73.37%
[16]; Homo sapiens, HOP-92, 10 μM, read-out: Percentage growth inhibition (GI%)
  inhibition at 10 µM: 27%
[17]; 1.00E-5 Molar
  Growth Percent: 91.15%
[17]; [25]
  inhibition at 10 µM: < 10%
[18]; Homo sapiens, NCI-H522, 10 μM, read-out: Percentage growth inhibition (GI%)
  inhibition at 10 µM: 51%
[18]; NCI-H522, 1.00E-5 Molar
  Growth Percent: 49.88%
other
  melting point: 253 to 254 °C
[19]; 1.00E-5 Molar
  Growth Percent: 85.74%
[19]; [25]
  inhibition at 10 µM: 15%
[20]; Homo sapiens, RPMI-8226, 10 μM, read-out: Percentage growth inhibition (GI%)
  inhibition at 10 µM: 17%
[20]; RPMI-8226, 1.00E-5 Molar
  Growth Percent: 83.77%
[21]; Homo sapiens, MOLT-4, 10 μM, read-out: Percentage growth inhibition (GI%)
  inhibition at 10 µM: 15%
[21]; MOLT-4, 1.00E-5 Molar
  Growth Percent: 85.62%
[22]; 1.00E-5 Molar
  Growth Percent: 97.16%
[22]; [25]
  inhibition at 10 µM: < 10%
[23]; 1.00E-5 Molar
  Growth Percent: 57.29%
[23]; [25]
  inhibition at 10 µM: 43%
[24]; Homo sapiens, K562, K-562, 10 μM, read-out: Percentage growth inhibition (GI%)
  inhibition at 10 µM: 27%
[24]; K-562, 1.00E-5 Molar
  Growth Percent: 73.25%

— article PMC6100082, “Pyridine-Ureas as Potential Anticancer Agents: Synthesis and In Vitro Biological Evaluation” (Molecules : A Journal of Synthetic Chemistry and Natural …, 2018)
